Measured values published in the NIST ThermoML archive (doi:10.1021/je060271a).

Conditions: 323.15 K, Liquid, Vibrating tube method

CCCC(=O)OCC(COC(=O)CCC)(COC(=O)CCC)COC(=O)CCC [pentaerythritol tetrabutyrate]
Conditions | mass density [kg/m3]
11242 kPa | 1032.9
11279 kPa | 1033
11316 kPa | 1033
11352 kPa | 1033
11384 kPa | 1033.1
11409 kPa | 1033
11434 kPa | 1033.1
11464 kPa | 1033
11489 kPa | 1033.1
11520 kPa | 1033.2
11545 kPa | 1033.1
11573 kPa | 1033.1
11598 kPa | 1033.2
11625 kPa | 1033.2
11655 kPa | 1033.2
11681 kPa | 1033.3
11713 kPa | 1033.3
11740 kPa | 1033.2
11766 kPa | 1033.3
11793 kPa | 1033.3
11825 kPa | 1033.4
11853 kPa | 1033.3
11880 kPa | 1033.5
11914 kPa | 1033.4
11944 kPa | 1033.4
11971 kPa | 1033.4
11999 kPa | 1033.4
12033 kPa | 1033.4
12061 kPa | 1033.5
12089 kPa | 1033.5
12122 kPa | 1033.6
12151 kPa | 1033.6
12180 kPa | 1033.6
12214 kPa | 1033.5
12243 kPa | 1033.7
12272 kPa | 1033.6
12367 kPa | 1033.8
12397 kPa | 1033.7
12432 kPa | 1033.7
12462 kPa | 1033.8
12499 kPa | 1033.8
12530 kPa | 1033.9
12555 kPa | 1033.8
12591 kPa | 1033.9
12623 kPa | 1033.9
12660 kPa | 1033.9
12691 kPa | 1033.9
12724 kPa | 1033.9
12762 kPa | 1033.9
12794 kPa | 1034.1
12826 kPa | 1033.9
12858 kPa | 1034
12897 kPa | 1034.1
12930 kPa | 1034.1
12969 kPa | 1034.1
13003 kPa | 1034.2
13037 kPa | 1034.3
13072 kPa | 1034.3
13115 kPa | 1034.3
13152 kPa | 1034.3
13184 kPa | 1034.2
13211 kPa | 1034.3
13233 kPa | 1034.3
13255 kPa | 1034.4
13281 kPa | 1034.4
13303 kPa | 1034.4
13326 kPa | 1034.4
13352 kPa | 1034.3
13375 kPa | 1034.4
13398 kPa | 1034.5
13420 kPa | 1034.5
13447 kPa | 1034.5
13470 kPa | 1034.5
13493 kPa | 1034.5
13520 kPa | 1034.5
13543 kPa | 1034.6
13570 kPa | 1034.5
13593 kPa | 1034.6
13616 kPa | 1034.6
13639 kPa | 1034.7
13667 kPa | 1034.5
13690 kPa | 1034.6
13718 kPa | 1034.6
13742 kPa | 1034.6
13766 kPa | 1034.7
13794 kPa | 1034.6
13819 kPa | 1034.6
13843 kPa | 1034.7
13867 kPa | 1034.7
13896 kPa | 1034.8
13920 kPa | 1034.7
13945 kPa | 1034.8
13974 kPa | 1034.9
13998 kPa | 1034.8
14027 kPa | 1034.8
14052 kPa | 1034.9
14215 kPa | 1035
14240 kPa | 1034.9
14265 kPa | 1034.9
14296 kPa | 1035.1
14322 kPa | 1035
14348 kPa | 1035.1
14379 kPa | 1035
14405 kPa | 1035
14431 kPa | 1035
14462 kPa | 1035.1
14490 kPa | 1035
14518 kPa | 1035.2
14544 kPa | 1035.1
14571 kPa | 1035.2
14603 kPa | 1035.1
14630 kPa | 1035.2
14658 kPa | 1035.3
14690 kPa | 1035.3
14717 kPa | 1035.3
14749 kPa | 1035.4
14805 kPa | 1035.4
14833 kPa | 1035.3
14867 kPa | 1035.3
14895 kPa | 1035.4
14923 kPa | 1035.5
14957 kPa | 1035.4
14986 kPa | 1035.4
15014 kPa | 1035.5
15048 kPa | 1035.6
15077 kPa | 1035.6
15105 kPa | 1035.6
15140 kPa | 1035.6
15169 kPa | 1035.7
15199 kPa | 1035.6
15229 kPa | 1035.5
15265 kPa | 1035.6
15294 kPa | 1035.6
15325 kPa | 1035.7
15360 kPa | 1035.7
15390 kPa | 1035.7
15421 kPa | 1035.8
15456 kPa | 1035.8
15487 kPa | 1035.8
15517 kPa | 1035.8
15554 kPa | 1035.8
15585 kPa | 1035.9
15616 kPa | 1035.9
15653 kPa | 1036
15685 kPa | 1035.9
15716 kPa | 1036
15748 kPa | 1036
